Data from ChEMBL document CHEMBL1201861, “Genomics of Drug Sensitity in Cancer screening data, Wellcome Trust Sanger Institute”.

What was measured:
Test in all cases: cells
[1] = system: MHH-PREB-1; type: functional, cell-based; conditions: Homo sapiens;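 note: cell viability assay measuring inhibition of proliferation of human MHH-PREB-1 cells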
Description: SANGER: Inhibition of human MHH-PREB-1 cell growth in a cell viability assay.

[2] = system: MKN-7; type: functional, cell-based, Homo sapiens; conditions: Homo sapiens, MKN-7;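 note: growth inhibition of MKN-7 cells, read out with a cell viability assay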
Description: SANGER: Inhibition of human MKN7 cell growth in a cell viability assay.

[3] = system: NTERA-2-cl-D1; type: functional, cell-based, Homo sapiens; conditions: Homo sapiens, NTERA-2-cl-D1;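 note: inhibition of cell growth, measured with a cell viability assay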
Description: SANGER: Inhibition of human NTERA-S-cl-D1 cell growth in a cell viability assay.

[4] = system: ChaGo-K-1; type: functional, cell-based; conditions: Homo sapiens;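 note: growth inhibition of ChaGo-K-1 cells, read out with a cell viability assay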
Description: SANGER: Inhibition of human ChaGo-K-1 cell growth in a cell viability assay.

[5] = system: AGS; type: functional, cell-based, Homo sapiens; conditions: Homo sapiens, AGS;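 note: growth inhibition of AGS cells, determined with a cell viability assay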
Description: SANGER: Inhibition of human AGS cell growth in a cell viability assay.

[6] = system: HuP-T3; type: functional, cell-based, Homo sapiens; conditions: Homo sapiens, HuP-T3;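 note: HuP-T3 cell growth inhibition, read out with a cell viability assay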
Description: SANGER: Inhibition of human HuP-T3 cell growth in a cell viability assay.

[7] = system: LOX IMVI; type: functional, cell-based; conditions: Homo sapiens
Description: SANGER: Inhibition of human LOXIMVI cell growth in a cell viability assay.

[8] = system: NCI-H1693; type: functional, cell-based, Homo sapiens; conditions: Homo sapiens, NCI-H1693;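 note: growth inhibition of the human cell line, read out with a cell viability assay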
Description: SANGER: Inhibition of human NCI-H1693 cell growth in a cell viability assay.

[9] = system: NCI-H1648; type: functional, cell-based, Homo sapiens; conditions: Homo sapiens, NCI-H1648;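 note: cell viability assay measuring inhibition of NCI-H1648 cell growth, from the Sanger screening data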
Description: SANGER: Inhibition of human NCI-H1648 cell growth in a cell viability assay.

[10] = system: DMS-79; type: functional, cell-based; conditions: Homo sapiens;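 note: growth inhibition measured with a cell viability assay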
Description: SANGER: Inhibition of human DMS-79 cell growth in a cell viability assay.

[11] = system: ES6; type: functional, cell-based, Homo sapiens; conditions: Homo sapiens, ES6;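 note: growth inhibition of human ES6 cells, read out with a cell viability assay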
Description: SANGER: Inhibition of human ES6 cell growth in a cell viability assay.

[12] = system: A-375; type: functional, cell-based, Homo sapiens; conditions: Homo sapiens, A-375;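 note: growth inhibition of A375 cells, read out with a cell viability assay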
Description: SANGER: Inhibition of human A375 cell growth in a cell viability assay.

[13] = system: TE-6; type: functional, cell-based, Homo sapiens; conditions: Homo sapiens, TE-6;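 note: growth inhibition of TE-6 cells, read out with a cell viability assay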
Description: SANGER: Inhibition of human TE-6 cell growth in a cell viability assay.

[14] = system: MDA-MB-361; type: functional, cell-based, Homo sapiens; conditions: Homo sapiens, MDA-MB-361
[15] = system: NCI-H1623; type: functional, cell-based, Homo sapiens; conditions: Homo sapiens, NCI-H1623;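 note: cell viability assay used as the read-out for growth inhibition of NCI-H1623 cells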
Description: SANGER: Inhibition of human NCI-H1623 cell growth in a cell viability assay.

[16] = system: HGC-27; type: functional, cell-based, Homo sapiens; conditions: Homo sapiens, HGC-27;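 note: growth inhibition of human HGC-27 cells, read out in a cell viability assay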
Description: SANGER: Inhibition of human HGC-27 cell growth in a cell viability assay.

[17] = system: ACHN; type: functional, cell-based, Homo sapiens; conditions: Homo sapiens, ACHN;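 note: cell viability read-out used to gauge how strongly growth of human ACHN cells is suppressed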
Description: SANGER: Inhibition of human ACHN cell growth in a cell viability assay.

[18] = system: COLO-668; type: functional, cell-based, Homo sapiens; conditions: Homo sapiens, COLO-668
Description: SANGER: Inhibition of human COLO-668 cell growth in a cell viability assay.

[19] = system: LS-411N; type: functional, cell-based, Homo sapiens; conditions: Homo sapiens, LS-411N
[20] = system: EM-2; type: functional, cell-based; conditions: Homo sapiens;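 note: growth inhibition of EM-2 cells, read out with a cell viability assay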
Description: SANGER: Inhibition of human EM-2 cell growth in a cell viability assay.

[21] = system: A388; type: functional, cell-based, Homo sapiens; conditions: Homo sapiens, A388;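 note: growth inhibition of human A388 cells, read out with a cell viability assay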
Description: SANGER: Inhibition of human A388 cell growth in a cell viability assay.

[22] = system: SW-620; type: functional, cell-based, Homo sapiens; conditions: Homo sapiens, SW-620;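 note: growth inhibition of human SW-620 cells, measured by a cell viability assay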
Description: SANGER: Inhibition of human SW620 cell growth in a cell viability assay.

[23] = system: KY821; type: functional, cell-based; conditions: Homo sapiens;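 note: growth inhibition of human KY821 cells, read out by a cell viability assay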
[24] = system: SCC-15; type: functional, cell-based, Homo sapiens; conditions: Homo sapiens, SCC-15;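 note: growth inhibition of SCC-15 cells, read out with a cell viability assay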
Description: SANGER: Inhibition of human SCC-15 cell growth in a cell viability assay.

[25] = system: MZ2-MEL; type: functional, cell-based, Homo sapiens; conditions: Homo sapiens, MZ2-MEL;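 note: growth inhibition of MZ2-MEL cells read out with a cell viability assay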
Description: SANGER: Inhibition of human MZ2-MEL cell growth in a cell viability assay.

[26] = system: DOHH-2; type: functional, cell-based; conditions: Homo sapiens;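 note: growth inhibition of human DOHH-2 cells, read out with a cell viability assay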
Description: SANGER: Inhibition of human DOHH-2 cell growth in a cell viability assay.

[27] = system: DU-4475; type: functional, cell-based; conditions: Homo sapiens
Description: SANGER: Inhibition of human DU-4475 cell growth in a cell viability assay.

[28] = system: HN; type: functional, cell-based, Homo sapiens; conditions: Homo sapiens, HN
Description: SANGER: Inhibition of human HN cell growth in a cell viability assay.

[29] = system: JVM-2; type: functional, cell-based; conditions: Homo sapiens;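 note: growth inhibition of JVM-2 cells determined by a cell viability assay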
Description: SANGER: Inhibition of human JVM-2 cell growth in a cell viability assay.

[30] = system: SW 954; type: functional, cell-based, Homo sapiens; conditions: Homo sapiens, SW 954;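 note: growth inhibition of SW954 human cancer cells, read out as cell viability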
Description: SANGER: Inhibition of human SW954 cell growth in a cell viability assay.

[31] = system: ONS-76; type: functional, cell-based, Homo sapiens; conditions: Homo sapiens, ONS-76;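 note: growth inhibition of human ONS-76 cells, read out with a cell viability assay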
Description: SANGER: Inhibition of human ONS-76 cell growth in a cell viability assay.

[32] = system: NB5; type: functional, cell-based, Homo sapiens; conditions: Homo sapiens, NB5;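 note: growth inhibition of NB5 cells, read out as cell viability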
Description: SANGER: Inhibition of human NB5 cell growth in a cell viability assay.

[33] = system: EW-13; type: functional, cell-based; conditions: Homo sapiens;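 note: growth inhibition of EW-13 cells, read out with a cell viability assay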
Description: SANGER: Inhibition of human EW-13 cell growth in a cell viability assay.

[34] = system: HCC70; type: functional, cell-based, Homo sapiens; conditions: Homo sapiens, HCC70;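 note: cell viability assay measuring how strongly the compound suppresses proliferation of HCC70 cells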
Description: SANGER: Inhibition of human HCC70 cell growth in a cell viability assay.

[35] = system: SW1990; type: functional, cell-based, Homo sapiens; conditions: Homo sapiens, SW1990;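 note: cell growth inhibition determined with a viability assay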
Description: SANGER: Inhibition of human SW1990 cell growth in a cell viability assay.

[36] = system: HT-1376; type: functional, cell-based, Homo sapiens; conditions: Homo sapiens, HT-1376
Description: SANGER: Inhibition of human HT-1376 cell growth in a cell viability assay.

[37] = system: RCM-1; type: functional, cell-based, Homo sapiens; conditions: Homo sapiens, RCM-1;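 note: growth inhibition of the RCM-1 line, determined with a cell viability readout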
Description: SANGER: Inhibition of human RCM-1 cell growth in a cell viability assay.

[38] = system: TE-8; type: functional, cell-based, Homo sapiens; conditions: Homo sapiens, TE-8;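 note: growth inhibition of TE-8 cells, measured with a cell viability readout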
Description: SANGER: Inhibition of human TE-8 cell growth in a cell viability assay.

[39] = system: HL-60; type: functional, cell-based; conditions: Homo sapiens;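 note: growth inhibition of human HL-60 cells, read out with a cell viability assay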
Description: SANGER: Inhibition of human HL-60 cell growth in a cell viability assay.

[40] = system: ALL-PO; type: functional, cell-based; conditions: Homo sapiens;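 note: growth inhibition of ALL-PO cells, read out by a cell viability assay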
Description: SANGER: Inhibition of human ALL-PO cell growth in a cell viability assay.

[41] = system: HuP-T4; type: functional, cell-based, Homo sapiens; conditions: Homo sapiens, HuP-T4;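 note: cell viability assay measuring how much HuP-T4 cell growth is inhibited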
Description: SANGER: Inhibition of human HuP-T4 cell growth in a cell viability assay.

[42] = system: VMRC-RCZ; type: functional, cell-based; conditions: Homo sapiens;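 note: growth inhibition measured with a cell viability assay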
Description: SANGER: Inhibition of human VMRC-RCZ cell growth in a cell viability assay.

[43] = system: LC-2-ad; type: functional, cell-based, Homo sapiens; conditions: Homo sapiens, LC-2-ad;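 note: growth inhibition of human LC-2-ad cells, read out with a cell viability assay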
Description: SANGER: Inhibition of human LC-2-ad cell growth in a cell viability assay.

[44] = system: BV-173; type: functional, cell-based; conditions: Homo sapiens
Description: SANGER: Inhibition of human BV-173 cell growth in a cell viability assay.

[45] = system: CGTH-W-1; type: functional, cell-based, Homo sapiens; conditions: Homo sapiens, CGTH-W-1;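 note: growth inhibition of human CGTH-W-1 cells measured by cell viability assay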
Description: SANGER: Inhibition of human CGTH-W-1 cell growth in a cell viability assay.

[46] = system: PFSK-1; type: functional, cell-based, Homo sapiens; conditions: Homo sapiens, PFSK-1;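 note: cell viability assay measuring how strongly compounds suppress growth of human PFSK-1 cells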
Description: SANGER: Inhibition of human PFSK-1 cell growth in a cell viability assay.

[47] = system: J82; type: functional, cell-based; conditions: Homo sapiens;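 note: growth inhibition of J82 cells, read out with a cell viability assay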
Description: SANGER: Inhibition of human J82 cell growth in a cell viability assay.

[48] = system: LK-2; type: functional, cell-based, Homo sapiens; conditions: Homo sapiens, LK-2;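 note: growth inhibition of LK-2 cells, read out with a viability assay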
Description: SANGER: Inhibition of human LK-2 cell growth in a cell viability assay.

[49] = system: MZ7-mel; type: functional, cell-based, Homo sapiens; conditions: Homo sapiens, MZ7-mel;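 note: growth inhibition of human MZ7-mel cells, measured by a cell viability assay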
[50] = system: 8-MG-BA; type: functional, cell-based, Homo sapiens; conditions: Homo sapiens, 8-MG-BA;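 note: growth inhibition of 8-MG-BA cells, read out with a cell viability assay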
Description: SANGER: Inhibition of human 8-MG-BA cell growth in a cell viability assay.

[51] = system: CAMA-1; type: functional, cell-based, Homo sapiens; conditions: Homo sapiens, CAMA-1;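 note: growth inhibition of CAMA-1 cells, read out with a cell viability assay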
Description: SANGER: Inhibition of human CAMA-1 cell growth in a cell viability assay.

With COC(=O)CNC(=O)C(=O)OC the IC50 [1] was 137 µM, the IC50 [2] was over 4000 µM and the IC50 [3] was 57.6 µM. It also gave an IC50 [4] of 1560 µM, an IC50 [5] of 629 µM and an IC50 [6] of 404 µM. For the same compound, the IC50 [7] was 344 µM, the IC50 [8] was 3790 µM and the IC50 [9] was 1670 µM. It also gave an IC50 [10] of over 4000 µM, an IC50 [11] of 3540 µM and an IC50 [12] of 176 µM. For the same compound, the IC50 [13] was 1360 µM, the IC50 [14] was 1690 µM and the IC50 [15] was 117 µM. For the same compound, the IC50 [16] was 188 µM, the IC50 [17] was 297 µM and the IC50 [18] was 93.8 µM. It also gave an IC50 [19] of over 4000 µM, an IC50 [20] of 234 µM and an IC50 [21] of 2460 µM. It also gave an IC50 [22] of 3230 µM, an IC50 [23] of over 4000 µM and an IC50 [24] of 1030 µM. It also gave an IC50 [25] of 478 µM, an IC50 [26] of 281 µM and an IC50 [27] of 899 µM. For the same compound, the IC50 [28] was 1030 µM, the IC50 [29] was over 4000 µM and the IC50 [30] was 85.4 µM. The IC50 [31] was 241 µM, the IC50 [32] was over 4000 µM and the IC50 [33] was 39 µM. It also gave an IC50 [34] of 306 µM, an IC50 [35] of 441 µM and an IC50 [36] of 389 µM. It also gave an IC50 [37] of 2980 µM, an IC50 [38] of 2640 µM and an IC50 [39] of 157 µM. For the same compound, the IC50 [40] was 69.9 µM, the IC50 [41] was 128 µM and the IC50 [42] was 1960 µM. For the same compound, the IC50 [43] was 24.6 µM, the IC50 [44] was 234 µM and the IC50 [45] was 489 µM. It also gave an IC50 [46] of 274 µM, an IC50 [47] of 57.6 µM and an IC50 [48] of over 4000 µM. For the same compound, the IC50 [49] was 171 µM, the IC50 [50] was 126 µM and the IC50 [51] was over 4000 µM.
CCC(=O)N1CCN(c2ccc(-n3c(=O)ccc4cnc5ccc(-c6cnc7ccccc7c6)cc5c43)cc2C(F)(F)F)CC1 [TORIN1] was tested, and the IC50 [1] was 0.0182 µM, the IC50 [3] was 0.0323 µM and the IC50 [7] was 0.125 µM. For the same compound, the IC50 [9] was 0.0362 µM, the IC50 [10] was over 1.2 µM and the IC50 [11] was 0.0108 µM. It also gave an IC50 [13] of 0.681 µM, an IC50 [18] of 0.294 µM and an IC50 [19] of 0.0144 µM. It also gave an IC50 [20] of 0.115 µM, an IC50 [21] of 0.0689 µM and an IC50 [23] of 0.22 µM. For the same compound, the IC50 [24] was over 1.2 µM, the IC50 [25] was 0.0234 µM and the IC50 [26] was 0.00225 µM. The IC50 [27] was 0.0917 µM, the IC50 [29] was over 1.2 µM and the IC50 [30] was 0.0379 µM. The IC50 [31] was 0.131 µM, the IC50 [32] was 0.0963 µM and the IC50 [33] was over 1.2 µM. It also gave an IC50 [38] of 0.0902 µM, an IC50 [39] of 0.149 µM and an IC50 [40] of 0.0496 µM. For the same compound, the IC50 [43] was 0.0214 µM, the IC50 [44] was 0.022 µM and the IC50 [45] was 0.184 µM. For the same compound, the IC50 [49] was 0.0261 µM and the IC50 [50] was 0.0463 µM.
In the case of CN1CCN(CCOc2cc(OC3CCOCC3)c3c(Nc4c(Cl)ccc5c4OCO5)ncnc3c2)CC1 [SARACATINIB], the IC50 [1] is reported as over 2 µM, the IC50 [3] is reported as over 2 µM and the IC50 [7] is reported as over 2 µM. It also gave an IC50 [9] of 0.281 µM, an IC50 [10] of over 2 µM and an IC50 [11] of over 2 µM. It also gave an IC50 [13] of over 2 µM, an IC50 [18] of over 2 µM and an IC50 [19] of over 2 µM. For the same compound, the IC50 [20] was 0.265 µM, the IC50 [21] was over 2 µM and the IC50 [23] was over 2 µM. It also gave an IC50 [24] of over 2 µM, an IC50 [25] of over 2 µM and an IC50 [26] of 1.72 µM. For the same compound, the IC50 [27] was over 2 µM, the IC50 [29] was over 2 µM and the IC50 [30] was over 2 µM. It also gave an IC50 [31] of over 2 µM, an IC50 [32] of over 2 µM and an IC50 [33] of over 2 µM. For the same compound, the IC50 [38] was 0.873 µM, the IC50 [39] was over 2 µM and the IC50 [40] was over 2 µM. The IC50 [43] was over 2 µM, the IC50 [44] was 0.652 µM and the IC50 [45] was over 2 µM. It also gave an IC50 [49] of over 2 µM and an IC50 [50] of over 2 µM.
